Test results taken from patent publication US11702402B2, “Small molecules that block proteasome-associated ubiquitin receptor RPN13 function and uses thereof” (DANA-FARBER CANCER INSTITUTE, INC., priority 2018, dated 2023).
“Also recorded” adds a separate entry of the source.

Columns and labels:
[1] = tested on: MM.1S CRBN KO cells; assay: MM.1S CRBN KO cell viability; type: cell-based, Human
Description: FIGS. […] Wst-1 assay was used to test cell viability.
The experiment was repeated twice and JQRA concentration was increased (as indicated) at the second time.

[2] = tested on: Ub-tagged GFP that is constitutively targeted for proteasomal degradation; assay: Ub-GFP (GFPu-1) reporter cell line immunoblot; type: cell-based; details: 16 hours
Procedure: Cell lysates were loaded on SDS-PAGE, transferred to PVDF membrane, then immunoblotted with anti-GFP, and anti beta-actin antibodies.
In FIG. 18, a reporter cell line expressing Ub-tagged GFP that is constitutively targeted for proteasomal degradation was treated with RA190 ([…]); and JQRA ([…]) for 16 hours. Cell lysates were loaded on SDS-PAGE, transferred to PVDF membrane, then immunoblotted with anti-GFP, and anti-alpha tubulin antibodies.
FIGS. 19A-19I show the exemplary design and characterization of exemplary Rpn13 degrader WL40. […] WL40 was created by linking the Rpn13 inhibitor RA190 to the IMiD thalidomide as a ligand for the CRBN E3 ligase via a PEG linker. […] FIG. 19C is a schematic cartoon for the novel AlphaScreen assay to measure the binding activity of inhibitor with RPN13 proteins. […] FIG. 19E depicts immunoblot analysis of multiple myeloma 1S (MM.1S) cells, which were treated with WL40 or RA190 at the indicated concentrations and time periods; protein lysates were subjected to the immunoblot analysis using anti-Rpn13 or anti-tubulin Abs. FIG. 19F depicts flow cytometry analysis of MM.1S cells, which were treated with DMSO control, WL40 (400 nM), or RA190 (500 nM) for 16 hours; cells were then washed and stained with Rpn13 Ab conjugated with AlexaFluor-647, followed by the flow cytometry analysis. Isotype Ab conjugated to AlexaFluor-647 was used as control for non-specific binding. Data was quantified using FACS Diva (BD Biosciences, USA) and FlowJo (FlowJo LLC, USA). FIG. 19G depicts immunoblot analysis of MM.1S-CRBN KO cells, which were treated with WL40 (400 nM) or RA190 (500 nM) for 16 hours; protein lysates were subjected to the immunoblot analysis using anti-Rpn13 or anti β-actin Abs. […]
To confirm that CRBN presence is a prerequisite for the function of WL40 in cells, CRBN-knockout (KO) MM.1S cells^27, 38 were utilized, and the effect of WL40 on Rpn13 degradation was examined. […] GFPu-1 cells were treated with WL40, and GFP levels were then analyzed using immunoblotting. […]

[3] = tested on: p53/p21 apoptotic signaling axis; assay: p53/p21 signaling immunoblot; type: cell-based, Human; details: ANBL6.BR; WL40 (1 μM) versus RA190 (1 μM)
[4] = tested on: MM.1S cells; details: human, 48 h
Procedure: FIGS. 4A and 4B show multiple myeloma 1S (MM.1S) cells treated with RA190, WL40, and WL44 at the indicated concentrations for 24 hours. Wst-1 assay was used to test cell viability.
In FIG. 13B, multiple myeloma cells (MM.1S) were treated with RA190 or compound JQRA at the indicated concentrations for 72 hours, and the percentage of viable cells was measured.
Purified CD138^+ patient MM cells, which were treated with DMSO control or WL40 at indicated concentrations for 48 hours, followed by assessment for cell viability using CellTiter-Glo assay (mean±SD of triplicate cultures; p<0.001). […] Normal PBMCs from healthy donors were treated with DMSO control or WL40 at indicated concentrations for 48 hours, and then analyzed for cell viability using CellTiter-Glo assay (mean±SD of quadruplicate cultures). […] MM.1S cells were cultured with or without patient BMSCs in the presence or absence of WL40 for 48 hours, and cell proliferation was measured by WST assay (mean±SD; n=3; p<0.0001). […] MM.1S cells were cultured with or without patient pDCs in the presence or absence of WL40 for 48 hours, and cell proliferation was measured by WST assay (mean±SD; n=3; p<0.0001).

[5] = tested on: PARP, caspase-3, caspase-7, caspase-8, caspase-9; assay: PARP/caspase immunoblot and caspase enzymatic activity; type: cell-based, Human
Procedure: FIGS. 22A to 22F show the mechanisms of WL40-induced MM cell death. […] MM.1S cells were treated with DMSO control or WL40 (200 nM) for 16 hours, and then analyzed for apoptosis using Annexin V/PI double staining assay (mean±SD; n=3; p<0.001). FIG. 22B is an immunoblot of MM.1S and ANBL6.BR cells, which were treated with DMSO control or WL40 (200 nM for MM.1S; 1 μM for ANBL6.BR) for 16 hours; protein lysates were then subjected to the immunoblotting using antibodies against poly ADP ribose polymerase (PARP), caspase-3, caspase-7, caspase-8, caspase-9, or β-actin. FL, full length; CF, cleaved fragment. FIG. 22C is a bar graph measuring enzymatic activity. MM.1S cells were treated with DMSO control or WL40 (200 nM) for 12 hours, followed by the measurement of caspase-3, caspase-8, or caspase-9 enzymatic activity (mean±SD; n=3; p<0.0001). FIG. 22D is an immunoblot of MM.1S and ANBL6.BR cells, which were treated with DMSO control or WL40 (200 nM for MM.1S; 1 μM for ANBL6.BR) for 16 hours; protein lysates were then subjected to the immunoblotting using specific antibodies against Cyclin-B1, Cell Division Cycle 25C (CDC25C), Cell Division Cycle 2 (CDCl2), or β-actin. […]

SMILES	cytotoxicity (percentage of viable cells) ([1]; CRBN-KO cells, 72 hours)	Ub-GFP levels / proteasome function (immunoblot) ([2]; 312 μM, 625 μM, 1250 μM, 2500 μM, 5000 μM)	induction of p53/p21 signaling [3]	cytotoxicity (cell viability) [4]	cell viability ([1]; MM.1S-CRBN KO, 24 hours, Wst-1)	PARP cleavage (immunoblot) ([5]; 200 nM for MM.1S, 1 μM for ANBL6.BR, 16 hours)	caspase activation ([5]; MM.1S 200 nM, immunoblot 16 hours, enzymatic activity 12 hours)	Ub-GFP levels / proteasome function (immunoblot) ([2]; WL40, WL44 0.5-2.0 μM, RA190 1 μM)
Cl.N[C@@H](Cc1ccccc1)C(=O)N1C/C(=C/c2ccc(Cl)c(Cl)c2)C(=O)/C(=C\c2ccc(Cl)c(Cl)c2)C1 [RA190, reference compound]	more robust MM cytotoxicity	blocks proteasome function	–	–	–	–	–	–
O=C1CCC(N2C(=O)c3cccc(NCCOCCOCCOCCC(=O)N[C@@H](Cc4ccccc4)C(=O)N4C/C(=C\c5ccc(Cl)c(Cl)c5)C(=O)/C(=C/c5ccc(Cl)c(Cl)c5)C4)c3C2=O)C(=O)N1 (some centres unmarked) [WL40]	–	–	earlier induction of this pathway	more cytotoxic than the parental Rpn13 inhibitor RA190	decrease cell viability	proteolytic cleavage of Poly (ADP) ribose polymerase (PARP)	activation of caspase-3, caspase-7, caspase-8 and caspase-9	block proteasome function; also recorded: increases GFP levels
